PMC10064822, “The importance of including the C-terminal domain of PTP1B1-400 to identify potential antidiabetic inhibitors” (Journal of Enzyme Inhibition and Medicinal Chemistry, 2023)
Like-named read-outs stand apart in the source and are kept apart here.

Legend:
PTP1B1-321 = conditions: cited from earlier work
PTP1B1-301 = conditions: cited from earlier work
PTP1B1-405 = conditions: cited from earlier work
hPTP1B1-400 [1] = target: T1, hPTP1B1-400 (Homo sapiens, UniProt P18031); test: Enzyme kinetics of hPTP1B1-400 inhibition; type: biochemical; parameters: the three purified hPTP1B constructs (hPTP1B1-285, hPTP1B1-321, and hPTP1B1-400); His-tag (N); made in house; host or cells: E. coli BL21 (DE3); conditions: for Type of inhibition: hPTP1B1-400, pNPP 0.1-0.5 mM, best fit by R^2; for Vmax: fit of inhibition model
T1 sequence (P18031 1-400): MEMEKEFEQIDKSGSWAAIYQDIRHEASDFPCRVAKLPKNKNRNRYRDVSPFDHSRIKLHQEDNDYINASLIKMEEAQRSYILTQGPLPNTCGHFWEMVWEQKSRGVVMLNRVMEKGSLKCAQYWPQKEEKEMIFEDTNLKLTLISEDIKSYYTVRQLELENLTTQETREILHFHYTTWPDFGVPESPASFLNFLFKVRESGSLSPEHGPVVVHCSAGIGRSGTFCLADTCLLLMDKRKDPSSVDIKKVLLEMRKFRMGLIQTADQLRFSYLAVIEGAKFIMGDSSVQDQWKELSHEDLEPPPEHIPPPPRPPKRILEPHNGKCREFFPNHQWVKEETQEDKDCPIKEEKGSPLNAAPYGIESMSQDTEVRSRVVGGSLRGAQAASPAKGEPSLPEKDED
Method: The negative control was prepared with the enzyme and substrate in the absence of an inhibitor. The experiments were performed in triplicate. […] (2) y= Vmax x/Km + x,
Vmax is the maximum velocity, x is the […] concentration, and Km is the Michaelis constant.
(3) y= Vmax (x)/Km (1+(I/Ki))+x (4) y= Vmax (x)/((1+I)/(α Ki)) /x+Km ((1+I)/ Ki)/(1+I)/(α Ki)), (5) y= Vmax (x)/ x+(Km/(1+I)/Ki)
Vmax is the maximum velocity, x is the substrate concentration, I is the inhibitor concentration, Km is the Michaelis constant, Ki is the inhibition constant, and α=Vmax without inhibitor/Vmax with inhibitor.

PTP1B1-299 = system: PTP1B1-299; parameters: method as in PMID 15475571; conditions: PTP1B1-299 ref [20]; cited from earlier work
PTP1B1-393 = conditions: cited from earlier work
hPTP1B1-321 = target: T2, hPTP1B1-321 (Homo sapiens, UniProt P18031); test: hPTP1B inhibition assay (pNPP), construct hPTP1B1-321; conditions: read-out: Km of the substrate (pNPP); hPTP1B1-321, no inhibitor
T2 sequence (P18031 1-321): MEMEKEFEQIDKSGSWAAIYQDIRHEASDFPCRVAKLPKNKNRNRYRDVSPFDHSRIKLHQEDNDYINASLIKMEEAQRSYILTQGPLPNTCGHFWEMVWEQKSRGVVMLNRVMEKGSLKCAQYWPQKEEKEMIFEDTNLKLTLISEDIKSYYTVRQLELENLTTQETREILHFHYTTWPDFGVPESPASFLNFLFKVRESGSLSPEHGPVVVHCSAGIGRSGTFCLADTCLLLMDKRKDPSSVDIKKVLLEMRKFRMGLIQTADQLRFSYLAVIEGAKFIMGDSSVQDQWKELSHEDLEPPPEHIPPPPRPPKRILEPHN

hPTP1B1-400 [2] = target: T1, hPTP1B1-400; test: hPTP1B inhibition assay (pNPP), construct hPTP1B1-400; conditions: read-out: Km of the substrate (pNPP); hPTP1B1-400, no inhibitor
hPTP1B1-285 = target: T3, hPTP1B1-285 (Homo sapiens, UniProt P18031); test: hPTP1B inhibition assay (pNPP), construct hPTP1B1-285; conditions: read-out: Km of the substrate (pNPP); hPTP1B1-285, no inhibitor
T3 sequence (P18031 1-285): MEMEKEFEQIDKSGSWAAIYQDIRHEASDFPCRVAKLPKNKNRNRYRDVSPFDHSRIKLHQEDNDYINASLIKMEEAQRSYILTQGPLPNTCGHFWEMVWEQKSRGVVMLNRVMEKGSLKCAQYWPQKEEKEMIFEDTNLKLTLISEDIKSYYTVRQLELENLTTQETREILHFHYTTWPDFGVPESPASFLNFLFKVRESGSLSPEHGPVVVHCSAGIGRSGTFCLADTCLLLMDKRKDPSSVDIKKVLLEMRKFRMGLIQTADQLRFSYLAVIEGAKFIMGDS

PTP1B1-298 = conditions: cited from earlier work
PTP1B1-400 = conditions: cited from earlier work

In the case of 2-(hydroxy-phenoxy) acetic acid, the Inhibition type (PTP1B1-321; PTP1B1-321 ref [38]) is listed as “Competitive” and the Ki (PTP1B1-321; PTP1B1-321 ref [38]) is listed as 9 µM.

For `O=C(/C=C/c1ccc(O)c(O)c1)O[C@@H](C(=O)O)[C@@H](OC(=O)/C=C/c1ccc(O)c(O)c1)C(=O)O` [Cichoric acid (CHA), Cichoric acid], the Inhibition type (PTP1B1-321; PTP1B1-321 ref [39]) is listed as “Non-competitive”, the Inhibition type (PTP1B1-301; PTP1B1-301 ref [47]) is listed as “Competitive” and the Ki (PTP1B1-301; PTP1B1-301 ref [47]) is listed as 1400 µM.

In the case of `COC(=O)CC[C@@H](C)[C@H]1CC[C@H]2[C@@H]3[C@H](O)C[C@H]4C[C@H](NCCCCNCc5ccccn5)CC[C@]4(C)[C@H]3CC[C@]12C` [DPM-1001], the IC50 (PTP1B1-405; PTP1B1-405 ref [48]) is given as 0.1 µM, the Inhibition type (PTP1B1-405; PTP1B1-405 ref [48]) is given as “Non-competitive” and the Kd (PTP1B1-405; PTP1B1-405 ref [48]) is given as 0.075 µM.

For `COc1ccc(-n2ncc3c2C(C)(C)[C@@H]2CC[C@]4(C)[C@H](C(=O)C=C5[C@@H]6C[C@@](C)(C(=O)O)CC[C@]6(C)CC[C@]54C)[C@@]2(C)C3)cc1` [5 b], the Type of inhibition (hPTP1B1-400 [1]) was “Uncompetitive”, the Ki (hPTP1B1-400 [1]; hPTP1B1-400, pNPP substrate) was 3.42 ± 0.2 µM and the Vmax (hPTP1B1-400 [1]; hPTP1B1-400, pNPP substrate) was 0.87 ± 0.03.

For `Cc1cc(-c2c3ccccc3c(Br)c3sc(C)c(C)c23)cc(C)c1O[C@H](Cc1ccccc1)C(=O)O` [Ertiprotafib], the IC50 (PTP1B1-299) is listed as greater than 20 µM, the Inhibition type (PTP1B1-299) is listed as “Nonclassic kinetics: Aggregation” and the Inhibition type (PTP1B1-393; PTP1B1-393 ref [18]) is listed as “Nonclassic kinetics: Aggregation”. The Inhibition type (PTP1B1-301; PTP1B1-301 ref [18]) was “Nonclassic kinetics: Aggregation”.

For `C[C@@H]1CC[C@]2(C(=O)O)CC[C@]3(C)C(=CC[C@@H]4[C@@]5(C)C[C@H](O)[C@H](O)C(C)(C)[C@@H]5CC[C@]43C)[C@@H]2[C@]1(C)O` [2β-hydroxy pomolic acid], the IC50 (PTP1B1-321; PTP1B1-321 ref [49]) is given as 5.88 µM, the Inhibition type (PTP1B1-321; PTP1B1-321 ref [49]) is given as “Mixed-competitive” and the Ki (PTP1B1-321; PTP1B1-321 ref [49]) is given as 7.56 µM.

In the case of `O=C(/C=C/c1ccc(O)c(O)c1)O[C@@H]1C[C@](O)(C(=O)O)C[C@@H](O)[C@H]1O` [CGA, chlorogenic acid], the IC50 (PTP1B1-321; PTP1B1-321 ref [39]) is listed as 9.82 µM, the Inhibition type (PTP1B1-321; PTP1B1-321 ref [39]) is listed as “Non-competitive” and the Inhibition type (PTP1B1-301; PTP1B1-301 ref [47]) is listed as “Non-competitive”. For the same molecule, the Ki (PTP1B1-301; PTP1B1-301 ref [47]) was 8200 µM.

For `O=[N+]([O-])c1ccc(OP(=O)(O)O)cc1` [pNPP, p-nitrophenyl phosphate], the Km (hPTP1B1-321) was 15.7 ± 1.68 mM, the Km (hPTP1B1-400 [2]) was 2.03 ± 0.11 mM and the Km (hPTP1B1-285) was 16.4 ± 1.55 mM.

In the case of `Oc1cc(Cc2cc(O)c(O)c(Br)c2Cc2cc(O)c(O)c(Br)c2Br)c(Br)c(Br)c1O` [BDB, 3-bromo-4,5-bis(2,3-dibromo-4,5-dihydroxybenzyl)-1,2-benzenediol], the IC50 (PTP1B1-321; PTP1B1-321 ref [21]) is given as 1.86 µM and the Inhibition type (PTP1B1-321; PTP1B1-321 ref [21]) is given as “Competitive”.

For `C[C@H]1[C@H](C)CC[C@]2(C(=O)O)CC[C@]3(C)C(=CC[C@@H]4[C@@]5(C)CC[C@H](O)C(C)(C)[C@@H]5CC[C@]43C)[C@H]12` [UA, ursolic acid], the IC50 (PTP1B1-321; PTP1B1-321 ref [45]) is given as 6.6 µM, the Inhibition type (PTP1B1-321; PTP1B1-321 ref [45]) is given as “Competitive” and the IC50 (PTP1B1-321; PTP1B1-321 ref [46]) is given as 3.08 µM. The Inhibition type (PTP1B1-321; PTP1B1-321 ref [46]) was “Competitive”, the IC50 (PTP1B1-298; PTP1B1-298 ref [44]) was 7.1 µM and the Inhibition type (PTP1B1-298; PTP1B1-298 ref [44]) was “Non-competitive”. The Ki (PTP1B1-298; PTP1B1-298 ref [44]) was 25.8 µM, the Type of inhibition (hPTP1B1-400 [1]) was “Mixed” and the Vmax (hPTP1B1-400 [1]; hPTP1B1-400, pNPP substrate) was 0.63 ± 0.08. The IC50 (PTP1B1-400; PTP1B1-400 ref [28]) was 5.6 µM, the Inhibition type (PTP1B1-400; PTP1B1-400 ref [28]) was “Non-competitive” and the Ki (PTP1B1-400; PTP1B1-400 ref [28]) was 8.9 µM.

In the case of `[Na+].[Na+].[Na+].[O]=[V]([O-])([O-])[O-]` [SO, sodium orthovanadate], the IC50 (PTP1B1-321; PTP1B1-321 ref [39–42]) is given as 1.38 µM, the Inhibition type (PTP1B1-321; PTP1B1-321 ref [39–42]) is given as “Competitive” and the Ki (PTP1B1-321; PTP1B1-321 ref [39–42]) is given as 0.38 µM. The Type of inhibition (hPTP1B1-400 [1]) was “Uncompetitive” and the Vmax (hPTP1B1-400 [1]; hPTP1B1-400, pNPP substrate) was 3.20 ± 0.80.

For `CC1CCC2(C(=O)O)CCC3(C)C(=CCC4C5(C)C(O)C(=O)C(O)C(C)(C)C5CCC43C)C2C1(C)O` (stereo not drawn) [1β,3α,19α-trihydroxy-2-oxours-12-en-28-oic acid], the IC50 (PTP1B1-321; PTP1B1-321 ref [49]) is given as 13.2 µM, the Inhibition type (PTP1B1-321; PTP1B1-321 ref [49]) is given as “Non-competitive” and the Ki (PTP1B1-321; PTP1B1-321 ref [49]) is given as 10.8 µM.

In the case of `O=C(O)C(=O)Nc1ccccc1C(=O)O` [2-(Oxaloamino) benzoic acid (OBA), 2-(oxaloamino) benzoic acid], the Inhibition type (PTP1B1-321; PTP1B1-321 ref [37]) is listed as “Competitive” and the Ki (PTP1B1-321; PTP1B1-321 ref [37]) is listed as 200 µM.

For `CC(C)[C@@H](CC[C@@H](C)[C@H]1CC[C@H]2[C@@H]3[C@H](O)C[C@H]4C[C@@H](NCCCNCCCCNCCCN)CC[C@]4(C)[C@H]3CC[C@]12C)OS(=O)(=O)O` [Trodusquemine], the Inhibition type (PTP1B1-321; PTP1B1-321 ref [7]) is given as “Non-competitive”, the Inhibition type (PTP1B1-405; PTP1B1-405 ref [7]) is given as “Non-competitive” and the IC50 (PTP1B1-400; PTP1B1-400 ref [43]) is given as 1 µM. For the same molecule, the Inhibition type (PTP1B1-400; PTP1B1-400 ref [43]) was “Non-competitive”.

In the case of `CC1=C(O)C(=O)C=C2C1=CC=C1[C@@]2(C)CC[C@@]2(C)[C@@H]3C[C@](C)(C(=O)O)CC[C@]3(C)CC[C@]12C` [Celastrol], the IC50 (PTP1B1-298; PTP1B1-298 ref [36]) is listed as 4.8 µM, the Inhibition type (PTP1B1-298; PTP1B1-298 ref [36]) is listed as “Non-competitive” and the Kd (PTP1B1-298; PTP1B1-298 ref [36]) is listed as 6.1 µM. The IC50 (PTP1B1-393; PTP1B1-393 ref [36]) was 2.1 µM and the Inhibition type (PTP1B1-393; PTP1B1-393 ref [36]) was “Non-competitive”.

In the case of `Cc1ccc(C(=O)Nc2ccc(S(=O)(=O)O)c3cc(S(=O)(=O)O)cc(S(=O)(=O)O)c23)cc1NC(=O)c1cccc(NC(=O)Nc2cccc(C(=O)Nc3cc(C(=O)Nc4ccc(S(=O)(=O)O)c5cc(S(=O)(=O)O)cc(S(=O)(=O)O)c45)ccc3C)c2)c1` [SUR, suramin], the IC50 (PTP1B1-321; PTP1B1-321 ref [40], [50]) is given as 11 µM, the Inhibition type (PTP1B1-321; PTP1B1-321 ref [40], [50]) is given as “Competitive” and the Ki (PTP1B1-321; PTP1B1-321 ref [40], [50]) is given as 4 µM. For the same molecule, the Type of inhibition (hPTP1B1-400 [1]) was “Competitive”, the Vmax (hPTP1B1-400 [1]; hPTP1B1-400, pNPP substrate) was 0.64 ± 0.02 and the IC50 (PTP1B1-400; PTP1B1-400 ref [28]) was 4.1 µM. The Inhibition type (PTP1B1-400; PTP1B1-400 ref [28]) was “Competitive” and the Ki (PTP1B1-400; PTP1B1-400 ref [28]) was 7.1 µM.
